Results reported in patent US9801833B2, “Compositions and methods using tiglic aldehyde” (NESTEC S.A., priority 2013, dated 2017).
Where two headings read alike, the source gives them in different places.

Key:
TRPM8 [1] = biological target: T1, TRPM8 (Homo sapiens, UniProt Q7Z2W7); assay: in vitro activation of hTRPM8 in cells (FIG. 7); format: cell-based; conditions: FIG. 7, squares
T1 construct: expressed in transfected cells

[2] = Excerpt: Without wishing to be bound by theory, the present inventors believe that activation of TRPA1 is effective to 1) help to provoke the swallowing reflex of dysphagic patients, 2) decrease appetite by delaying gastric emptying, 3) reduce body weight gain, and 4) reduce glycemia by improving insulin sensitivity or glucose tolerance, 5) improve mood, memory or cognition. Tiglic aldehyde is described as having fresh, fruity, green, pulpy and almond nutty nuances (Fenaroli's Handbook of Flavor Ingredients, sixth edition), making it more pleasant compared to other TRPA1 agonists.
TRPM8 [3] = biological target: T1, TRPM8; assay: desensitization of TRPM8 by pretreatment fifteen minutes before icilin (FIGS. 8A, 8B); format: cell-based; conditions: applied to cells fifteen minutes before icilin
Protocol: (§1) Specifically, tiglic aldehyde was applied to cells fifteen minutes before cinnamaldehyde, icilin and capsaicin, which are specific agonists for TRPA1, TRPM8 and TRPV1 cation channels, respectively. After specific agonist application, the cation channel […] was measured. […] The left bars in each graph represent the controls lacking tiglic aldehyde pretreatment, the right bars in each graph represent the samples including tiglic aldehyde pretreatment.

TRPV1 [4] = biological target: T2, TRPV1 (Homo sapiens, UniProt Q8NER1); assay: in vitro activation of TRPV1 in cells (FIG. 7); format: cell-based; conditions: FIG. 7, triangles
T2 construct: expressed in transfected cells
T2 sequence (Q8NER1 whole entry, species assumed): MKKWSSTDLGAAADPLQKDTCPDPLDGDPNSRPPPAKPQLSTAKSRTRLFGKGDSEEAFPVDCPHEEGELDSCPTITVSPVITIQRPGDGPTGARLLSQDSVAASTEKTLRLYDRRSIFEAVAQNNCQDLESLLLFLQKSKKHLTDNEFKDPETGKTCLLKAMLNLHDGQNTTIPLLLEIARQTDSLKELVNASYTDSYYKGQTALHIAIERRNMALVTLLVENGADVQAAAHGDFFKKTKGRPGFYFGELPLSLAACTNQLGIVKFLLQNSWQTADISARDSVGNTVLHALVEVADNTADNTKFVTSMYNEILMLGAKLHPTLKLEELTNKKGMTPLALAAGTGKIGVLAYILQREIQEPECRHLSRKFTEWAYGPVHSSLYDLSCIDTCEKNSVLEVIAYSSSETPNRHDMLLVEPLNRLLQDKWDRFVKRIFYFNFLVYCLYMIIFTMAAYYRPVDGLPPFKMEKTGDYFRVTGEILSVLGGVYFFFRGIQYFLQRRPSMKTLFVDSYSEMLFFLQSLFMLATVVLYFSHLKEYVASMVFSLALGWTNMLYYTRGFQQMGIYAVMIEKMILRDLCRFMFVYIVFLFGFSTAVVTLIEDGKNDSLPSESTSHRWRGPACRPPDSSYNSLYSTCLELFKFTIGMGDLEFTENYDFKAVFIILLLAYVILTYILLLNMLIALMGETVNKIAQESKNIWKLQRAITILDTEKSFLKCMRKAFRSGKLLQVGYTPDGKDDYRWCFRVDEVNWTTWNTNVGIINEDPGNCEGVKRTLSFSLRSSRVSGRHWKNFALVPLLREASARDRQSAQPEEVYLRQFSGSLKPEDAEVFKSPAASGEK

"empty" cells = assay: in vitro activation of "empty" cells (FIG. 7); format: cell-based
TRPA1 [5] = biological target: T3, TRPA1 (Homo sapiens, UniProt O75762); assay: desensitization of TRPA1 by pretreatment fifteen minutes before cinnamaldehyde (FIGS. 8A, 8B); format: cell-based; conditions: applied to cells fifteen minutes before cinnamaldehyde
T3 construct: expressed in transfected cells
T3 sequence (O75762 whole entry, species assumed): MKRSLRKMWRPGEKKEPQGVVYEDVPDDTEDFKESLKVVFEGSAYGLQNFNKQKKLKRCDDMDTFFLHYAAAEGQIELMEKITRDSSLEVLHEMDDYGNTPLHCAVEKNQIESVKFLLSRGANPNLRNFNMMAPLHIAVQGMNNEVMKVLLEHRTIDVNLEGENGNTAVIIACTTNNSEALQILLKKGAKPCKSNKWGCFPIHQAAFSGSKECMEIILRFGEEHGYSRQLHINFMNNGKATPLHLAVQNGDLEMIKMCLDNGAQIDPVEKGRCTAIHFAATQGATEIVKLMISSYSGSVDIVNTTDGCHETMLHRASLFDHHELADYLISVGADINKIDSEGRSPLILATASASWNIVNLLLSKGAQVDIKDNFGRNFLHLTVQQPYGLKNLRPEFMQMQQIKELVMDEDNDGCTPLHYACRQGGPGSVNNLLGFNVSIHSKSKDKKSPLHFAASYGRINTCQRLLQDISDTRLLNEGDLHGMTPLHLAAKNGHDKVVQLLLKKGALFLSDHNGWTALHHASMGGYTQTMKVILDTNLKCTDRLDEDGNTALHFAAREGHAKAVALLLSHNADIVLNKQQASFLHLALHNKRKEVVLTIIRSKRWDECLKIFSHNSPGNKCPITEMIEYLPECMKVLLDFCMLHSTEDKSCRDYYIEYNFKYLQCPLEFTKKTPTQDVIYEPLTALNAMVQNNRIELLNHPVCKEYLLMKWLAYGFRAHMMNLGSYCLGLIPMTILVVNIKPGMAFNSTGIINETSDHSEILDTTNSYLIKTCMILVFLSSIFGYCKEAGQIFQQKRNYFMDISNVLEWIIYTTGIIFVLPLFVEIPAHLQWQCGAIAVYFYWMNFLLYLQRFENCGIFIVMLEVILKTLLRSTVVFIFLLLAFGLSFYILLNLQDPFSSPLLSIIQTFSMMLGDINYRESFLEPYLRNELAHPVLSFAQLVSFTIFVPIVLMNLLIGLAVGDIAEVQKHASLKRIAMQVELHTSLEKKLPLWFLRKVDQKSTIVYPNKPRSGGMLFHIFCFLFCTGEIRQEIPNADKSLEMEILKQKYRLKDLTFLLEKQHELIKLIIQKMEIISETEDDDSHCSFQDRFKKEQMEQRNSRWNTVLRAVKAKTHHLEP
Protocol: as §1

TRPV1 [6] = biological target: T2, TRPV1; assay: desensitization of TRPV1 by pretreatment fifteen minutes before capsaicin (FIGS. 8A, 8B); format: cell-based; conditions: applied to cells fifteen minutes before capsaicin
Protocol: as §1

TRPA1 [7] = biological target: T3, TRPA1; assay: in vitro activation of TRPA1 in cells (FIG. 7); format: cell-based
TRPM8 [8] = biological target: T1, TRPM8; conditions: cited from earlier work
mice [9] = assay: gastric emptying after a single ingestion in mice (FIG. 6); format: in vivo; conditions: vs sham gavage
mice [10] = assay: short term food intake after a single ingestion in mice (FIG. 5); format: in vivo; conditions: vs sham gavage
TRPA1 [11] = biological target: T3, TRPA1; conditions: read-out: EC50 of TRPA1 activation; cited from earlier work
mice [12] = assay: body weight gain in mice with chronic ingestion (FIG. 3); format: in vivo; conditions: mice chronically fed high fat diet containing 0.2 wt %, vs same diet without
mice [13] = assay: insulin sensitivity in mice with chronic ingestion (FIG. 4); format: in vivo; conditions: mice chronically fed high fat diet containing 0.2 wt %, vs same diet without
TRPV1 [14] = biological target: T2, TRPV1; conditions: cited from earlier work

T1 sequence (Q7Z2W7 whole entry): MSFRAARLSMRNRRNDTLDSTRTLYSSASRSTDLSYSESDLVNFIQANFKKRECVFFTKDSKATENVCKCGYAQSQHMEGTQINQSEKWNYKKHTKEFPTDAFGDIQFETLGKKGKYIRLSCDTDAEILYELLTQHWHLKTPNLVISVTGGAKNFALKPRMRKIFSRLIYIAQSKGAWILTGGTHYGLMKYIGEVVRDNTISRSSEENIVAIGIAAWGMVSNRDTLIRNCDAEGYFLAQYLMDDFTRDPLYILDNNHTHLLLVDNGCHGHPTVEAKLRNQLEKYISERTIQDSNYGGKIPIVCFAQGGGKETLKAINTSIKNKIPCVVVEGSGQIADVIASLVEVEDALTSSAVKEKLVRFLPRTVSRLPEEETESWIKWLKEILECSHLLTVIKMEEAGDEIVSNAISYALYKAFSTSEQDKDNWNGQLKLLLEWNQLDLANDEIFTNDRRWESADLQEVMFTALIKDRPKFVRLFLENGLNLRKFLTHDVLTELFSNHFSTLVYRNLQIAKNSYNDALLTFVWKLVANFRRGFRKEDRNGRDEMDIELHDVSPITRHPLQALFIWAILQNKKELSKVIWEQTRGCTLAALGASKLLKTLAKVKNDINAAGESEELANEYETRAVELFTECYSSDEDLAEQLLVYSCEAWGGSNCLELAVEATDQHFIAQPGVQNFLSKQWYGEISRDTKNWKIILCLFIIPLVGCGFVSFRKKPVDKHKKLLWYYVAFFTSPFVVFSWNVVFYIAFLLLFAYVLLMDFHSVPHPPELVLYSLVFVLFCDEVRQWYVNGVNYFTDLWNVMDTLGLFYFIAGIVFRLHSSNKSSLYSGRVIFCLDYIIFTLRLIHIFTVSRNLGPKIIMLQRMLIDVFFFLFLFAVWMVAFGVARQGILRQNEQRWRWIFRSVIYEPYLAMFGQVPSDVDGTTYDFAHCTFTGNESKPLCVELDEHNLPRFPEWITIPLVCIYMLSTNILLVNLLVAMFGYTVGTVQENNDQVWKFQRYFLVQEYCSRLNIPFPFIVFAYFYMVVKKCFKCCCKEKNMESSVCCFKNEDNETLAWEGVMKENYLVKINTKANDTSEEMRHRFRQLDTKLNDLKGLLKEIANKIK

Row | SMILES | activation of hTRPM8 (TRPM8 [1]) | irritancy [2] | desensitization of TRPM8 (TRPM8 [3]) | activation of TRPV1 (TRPV1 [4]) | activation of "empty" cells ("empty" cells) | desensitization of TRPA1 (TRPA1 [5]) | desensitization of TRPV1 (TRPV1 [6]) | activation of TRPA1 (TRPA1 [7]; FIG. 7, diamonds) | efficacy of TRPA1 activation relative to cinnamaldehyde (TRPA1 [7]; relative to known TRPA1 agonist cinnamaldehyde) [%] | activation of TRPM8 (TRPM8 [8]) | gastric emptying (mice [9]) | short term food intake (mice [10]) | EC50 (TRPA1 [11]) [µM] | body weight gain (mice [12]) | insulin sensitivity (mice [13]) | activation of TRPV1 (TRPV1 [14])
1 | C/C=C(\C)C=O [tiglic aldehyde] | no activation was observed | not an irritant | does not desensitize | no activation was observed | no activation was observed | does not desensitize | does not desensitize | activated TRPA1 (diamonds) in a dose-dependent fashion | 120 |  |  |  |  |  |  | 
2 | O=CC=Cc1ccccc1 [cinnamaldehyde] |  |  |  |  |  |  |  |  |  | not | delayed gastric emptying | reduction in short term food intake | ~60 | gained less weight | improved insulin sensitivity | not
